# Reference: patent US8586973B2, “Host material for light-emitting diodes” (Solvay SA, priority 2008, dated 2013)
# Assay: Solubility tests in organic solvents
# Format: physicochemical
# Details: 20° C.; for Solubility S in chlorobenzene / Solubility S in toluene: 1 ml solvent, magnetic stirring
# Protocol: The solubility tests were carried out at 20° C. by adding 1 ml of solvent to the suitable amount of compound powder in a sampling vial and under magnetic stirring.
Compound,Solubility S in chlorobenzene (molar) [mM],Solubility S in chlorobenzene [mg/mL],Solubility S in toluene (molar) [mM],Solubility S in toluene [mg/mL]
"CC(C)[Si](c1ccc2c(c1)c1cc([Si](C(C)C)(C(C)C)C(C)C)ccc1n2-c1ccc(C2(c3ccc(-n4c5ccc([Si](C(C)C)(C(C)C)C(C)C)cc5c5cc([Si](C(C)C)(C(C)C)C(C)C)ccc54)cc3)c3ccccc3-c3ccccc32)cc1)(C(C)C)C(C)C [Compound IV, 9,9-Bis-(4-phenyl-3,6,3″,6″-tetrakis-triisopropylsilanyl-9′H-carbazole)-9H-fluorene]",> 42,> 54,> 31,> 39
"CC(C)[Si](c1ccc2c(c1)c1ccccc1n2-c1ccc(C2(c3ccc(-n4c5ccccc5c5cc([Si](C(C)C)(C(C)C)C(C)C)ccc54)cc3)c3ccccc3-c3ccccc32)cc1)(C(C)C)C(C)C [Compound IX, 9,9-Bis-[4-(3-Triisopropylsilylcarbazol)-phenyl]-fluorene]",> 59,> 57,> 49,> 47
"COc1ccc(-n2c3ccc(-n4c5ccc([Si](C(C)C)(C(C)C)C(C)C)cc5c5cc([Si](C(C)C)(C(C)C)C(C)C)ccc54)cc3c3cc(-n4c5ccc([Si](C(C)C)(C(C)C)C(C)C)cc5c5cc([Si](C(C)C)(C(C)C)C(C)C)ccc54)ccc32)cc1 [Compound VI, 9′-(4-Methoxy-phenyl)-3,6,3″,6″-tetrakis-triisopropylsilanyl-9′-[9,3′;6′,9″]tercarbazole]",> 45,> 55,,
"COc1ccc(-n2c3ccc(-n4c5ccccc5c5cc([Si](C(C)C)(C(C)C)C(C)C)ccc54)cc3c3cc(-n4c5ccccc5c5cc([Si](C(C)C)(C(C)C)C(C)C)ccc54)ccc32)cc1 [Compound VII, 9-N-(4-Methoxy-phenyl)-3,6-Bis-[(3-Triisopropylsilylcarbazolyl)]carbazole]",> 62,> 56,,
"CC(C)[Si](c1ccc2c(c1)c1ccccc1n2-c1ccc2c(c1)c1cc(-n3c4ccccc4c4cc([Si](C(C)C)(C(C)C)C(C)C)ccc43)ccc1n2-c1ccc(F)cc1)(C(C)C)C(C)C [Compound VIII, 9-N-(4-Fluoro-phenyl)-3,6-Bis-[(3-Triisopropylsilylcarbazolyl)]carbazole]",> 57,> 51,,
